From PubChem BioAssay (NCI)
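How tested: cells in 96-well plates exposed to compound for 48 hours at five concentrations. GI50 is the concentration that inhibits growth by half. TGI is the concentration that stops growth completely.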

How the values were obtained:
Assay in all cases: NCI-60 cell line screen, 48 h; in the data active means GI50 below about 0.43 µM; inactive means the rest
NCI-H522 lung = test system: NCI-H522 lung
KM12 colon = test system: KM12 colon
SW-620 colon = test system: SW-620 colon
SF-539 CNS = test system: SF-539 CNS
OVCAR-5 ovarian = test system: OVCAR-5 ovarian
SR leukemia = test system: SR leukemia
U251 CNS = test system: U251 CNS
A498 renal = test system: A498 renal
SK-OV-3 ovarian = test system: SK-OV-3 ovarian
CAKI-1 renal = test system: CAKI-1 renal
MALME-3M melanoma = test system: MALME-3M melanoma
HL-60(TB) leukemia = test system: HL-60(TB) leukemia
SN12C renal = test system: SN12C renal
HCT-116 colon = test system: HCT-116 colon
SNB-75 CNS = test system: SNB-75 CNS
COLO 205 colon = test system: COLO 205 colon
RPMI-8226 leukemia = test system: RPMI-8226 leukemia
TK-10 renal = test system: TK-10 renal
CCRF-CEM leukemia = test system: CCRF-CEM leukemia
LOX IMVI melanoma = test system: LOX IMVI melanoma
HT29 colon = test system: HT29 colon
SNB-19 CNS = test system: SNB-19 CNS
K-562 leukemia = test system: K-562 leukemia
786-0 renal = test system: 786-0 renal
IGROV1 ovarian = test system: IGROV1 ovarian
OVCAR-4 ovarian = test system: OVCAR-4 ovarian
M14 melanoma = test system: M14 melanoma
HCT-15 colon = test system: HCT-15 colon
NCI-H460 lung = test system: NCI-H460 lung
BT-549 breast = test system: BT-549 breast
ACHN renal = test system: ACHN renal
MOLT-4 leukemia = test system: MOLT-4 leukemia
OVCAR-8 ovarian = test system: OVCAR-8 ovarian
UACC-62 melanoma = test system: UACC-62 melanoma
NCI/ADR-RES ovarian = test system: NCI/ADR-RES ovarian
HOP-92 NSCLC = test system: HOP-92 NSCLC
OVCAR-3 ovarian = test system: OVCAR-3 ovarian
SK-MEL-5 melanoma = test system: SK-MEL-5 melanoma
SK-MEL-2 melanoma = test system: SK-MEL-2 melanoma
A549 NSCLC = test system: A549 NSCLC
PC-3 prostate = test system: PC-3 prostate
T-47D breast = test system: T-47D breast
DU-145 prostate = test system: DU-145 prostate
MDA-MB-231 breast = test system: MDA-MB-231 breast
SK-MEL-28 melanoma = test system: SK-MEL-28 melanoma
MCF7 breast = test system: MCF7 breast
UO-31 renal = test system: UO-31 renal
HOP-62 NSCLC = test system: HOP-62 NSCLC
SF-268 CNS = test system: SF-268 CNS
UACC-257 melanoma = test system: UACC-257 melanoma
NCI-H226 lung = test system: NCI-H226 lung
HCC-2998 colon = test system: HCC-2998 colon
RXF 393 renal = test system: RXF 393 renal
MDA-MB-435 = test system: MDA-MB-435
HS 578T breast = test system: HS 578T breast
EKVX NSCLC = test system: EKVX NSCLC
NCI-H23 lung = test system: NCI-H23 lung

C/C(=N\NC(=O)c1ccc(C(C)(C)C)cc1)c1ccc(O)cc1O
> 34100 nM: TGI (COLO 205 colon)
14200 nM: TGI (HT29 colon)
> 100000 nM: TGI (NCI-H522 lung) | TGI (KM12 colon) | TGI (SW-620 colon) | TGI (OVCAR-5 ovarian) | TGI (U251 CNS) | TGI (A498 renal) | TGI (SK-OV-3 ovarian) | TGI (SN12C renal) | TGI (HCT-116 colon) | TGI (TK-10 renal) | TGI (SNB-19 CNS) | TGI (K-562 leukemia) | TGI (IGROV1 ovarian) | TGI (HCT-15 colon) | TGI (ACHN renal) | TGI (MOLT-4 leukemia) | TGI (OVCAR-8 ovarian) | TGI (UACC-62 melanoma) | TGI (NCI/ADR-RES ovarian) | TGI (HOP-92 NSCLC) | TGI (OVCAR-3 ovarian) | TGI (SK-MEL-2 melanoma) | TGI (A549 NSCLC) | TGI (PC-3 prostate) | TGI (T-47D breast) | TGI (DU-145 prostate) | TGI (MDA-MB-231 breast) | TGI (SK-MEL-28 melanoma) | TGI (MCF7 breast) | TGI (UO-31 renal) | TGI (HOP-62 NSCLC) | TGI (SF-268 CNS) | TGI (UACC-257 melanoma) | TGI (MDA-MB-435) | TGI (HS 578T breast) | TGI (EKVX NSCLC) | TGI (NCI-H23 lung)
4720 nM: TGI (CAKI-1 renal)
inactive: GI50 (NCI-H522 lung) 1890 nM | GI50 (KM12 colon) 511 nM | GI50 (SW-620 colon) 602 nM | GI50 (SF-539 CNS) 648 nM | GI50 (OVCAR-5 ovarian) 862 nM | GI50 (U251 CNS) 615 nM | GI50 (A498 renal) 1380 nM | GI50 (SK-OV-3 ovarian) 1060 nM | GI50 (MALME-3M melanoma) 1140 nM | GI50 (HL-60(TB) leukemia) 1080 nM | GI50 (SN12C renal) 1240 nM | GI50 (SNB-75 CNS) 1270 nM | GI50 (RPMI-8226 leukemia) 763 nM | GI50 (TK-10 renal) 886 nM | GI50 (HT29 colon) 689 nM | GI50 (SNB-19 CNS) 2360 nM | GI50 (K-562 leukemia) 568 nM | GI50 (786-0 renal) 985 nM | GI50 (IGROV1 ovarian) 572 nM | GI50 (M14 melanoma) 532 nM | GI50 (BT-549 breast) 1830 nM | GI50 (ACHN renal) 491 nM | GI50 (OVCAR-8 ovarian) 673 nM | GI50 (UACC-62 melanoma) 671 nM | GI50 (HOP-92 NSCLC) 4220 nM | GI50 (SK-MEL-5 melanoma) 1470 nM | GI50 (SK-MEL-2 melanoma) 2380 nM | GI50 (A549 NSCLC) 751 nM | GI50 (PC-3 prostate) 1080 nM | GI50 (T-47D breast) 1070 nM | GI50 (DU-145 prostate) 705 nM | GI50 (MDA-MB-231 breast) 791 nM | GI50 (SK-MEL-28 melanoma) 1670 nM | GI50 (MCF7 breast) 628 nM | GI50 (HOP-62 NSCLC) 484 nM | GI50 (SF-268 CNS) 528 nM | GI50 (UACC-257 melanoma) 1510 nM | GI50 (NCI-H226 lung) 843 nM | GI50 (HCC-2998 colon) 638 nM | GI50 (RXF 393 renal) 2110 nM | GI50 (MDA-MB-435) 810 nM | GI50 (HS 578T breast) 3260 nM | GI50 (EKVX NSCLC) 442 nM | GI50 (NCI-H23 lung) 1180 nM
17900 nM: TGI (SNB-75 CNS)
> 59900 nM: TGI (RPMI-8226 leukemia)
1920 nM: TGI (LOX IMVI melanoma)
10200 nM: TGI (RXF 393 renal)
> 65800 nM: TGI (BT-549 breast)
10300 nM: TGI (NCI-H460 lung)
61400 nM: TGI (HCC-2998 colon)
45200 nM: TGI (MALME-3M melanoma)
11100 nM: TGI (HL-60(TB) leukemia)
> 62200 nM: TGI (SR leukemia)
14000 nM: TGI (NCI-H226 lung)
> 70400 nM: TGI (SF-539 CNS)
4740 nM: TGI (SK-MEL-5 melanoma)
13500 nM: TGI (786-0 renal)
active: GI50 (SR leukemia) 379 nM | GI50 (CAKI-1 renal) 392 nM | GI50 (HCT-116 colon) 298 nM | GI50 (COLO 205 colon) 386 nM | GI50 (CCRF-CEM leukemia) 331 nM | GI50 (LOX IMVI melanoma) 318 nM | GI50 (OVCAR-4 ovarian) 306 nM | GI50 (HCT-15 colon) 396 nM | GI50 (NCI-H460 lung) 347 nM | GI50 (MOLT-4 leukemia) 344 nM | GI50 (NCI/ADR-RES ovarian) 416 nM | GI50 (OVCAR-3 ovarian) 309 nM | GI50 (UO-31 renal) 377 nM
> 30900 nM: TGI (CCRF-CEM leukemia)
7340 nM: TGI (M14 melanoma)
